In general, Ki refers to a measure of affinity in units of concentration, obtained from inhibition or displacement. A word on the ED50: it is the dose that gives a 50% effect, or the effect in half of the subjects.

Experimental findings from ChEMBL document CHEMBL1142248, “Structure-activity relationships and pharmacokinetic parameters of quinoline acylsulfonamides as potent and selective antagonists of the EP(4) receptor” (Bioorg Med Chem Lett, 2008) are described below.

Experiment [1] has as its target T1, Prostaglandin E2 receptor EP4 subtype (Homo sapiens, UniProt P35408). Description: Binding affinity to human EP4 receptor expressed in HEK293 cells. It is filed as cell-based.
Experiment [2] deals with T1, Prostaglandin E2 receptor EP4 subtype. In words: Binding affinity to human EP4 receptor expressed in HEK293 cells in presence of 10% human serum. Type of experiment: cell-based.
Another experiment is filed under the species Rattus norvegicus. Description: Antiinflammatory activity against adjuvant-induced rat arthritis model. It is filed as functional.

A value given as a limit tells only on which side of the number the result lay.

T1 sequence (P35408 whole entry): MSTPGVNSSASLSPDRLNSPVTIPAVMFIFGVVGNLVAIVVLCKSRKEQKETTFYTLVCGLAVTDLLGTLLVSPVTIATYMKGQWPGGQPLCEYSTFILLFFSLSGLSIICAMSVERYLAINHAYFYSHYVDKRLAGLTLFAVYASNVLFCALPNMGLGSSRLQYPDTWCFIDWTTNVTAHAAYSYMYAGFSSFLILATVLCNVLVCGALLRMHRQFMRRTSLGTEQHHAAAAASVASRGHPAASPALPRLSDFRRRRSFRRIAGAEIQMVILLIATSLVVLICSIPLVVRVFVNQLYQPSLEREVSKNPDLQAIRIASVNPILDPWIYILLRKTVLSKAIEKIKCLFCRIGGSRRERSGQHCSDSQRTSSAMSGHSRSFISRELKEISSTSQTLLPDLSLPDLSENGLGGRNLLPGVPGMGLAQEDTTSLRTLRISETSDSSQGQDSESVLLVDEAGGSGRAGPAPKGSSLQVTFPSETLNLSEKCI

In the case of `CCOc1c2c(c(OCC)c3ncccc13)CN(c1ccc(CS(=O)(=O)NC(=O)Cc3ccccc3)cc1C)C2=O`, the Ki in experiment [1] came out at 0.76 nM; in experiment [2], 31 nM.

For the compound `CCOc1c2c(c(OCC)c3ncccc13)CN(c1ccc(CS(=O)(=O)NC(=O)Cc3ccccc3F)cc1C)C2=O`, the Ki in experiment [1] was found to be 0.48 nM; in experiment [2], 34 nM.

As for `CCOc1c2c(c(OCC)c3ccccc13)C(=O)N(c1ccc(CS(=O)(=O)NC(=O)C(c3ccccc3)c3ccccc3)cc1)C2`, the Ki is 7.9 nM in experiment [1] and above 4000 nM in experiment [2].

Regarding `CCOc1c2c(c(OCC)c3ccccc13)C(=O)N(c1ccc(CS(=O)(=O)NC(=O)Cc3c(C)cc(C)cc3C)cc1)C2`, the results for the Ki in experiment [1] and in experiment [2] were 0.43 nM and 380 nM, respectively.

`CCOc1c2c(c(OCC)c3ncccc13)CN(c1ccc(CS(=O)(=O)NC(=O)Cc3ccccc3OC(F)F)cc1C)C2=O`: the Ki in experiment [1] was 0.32 nM; in experiment [2], 13 nM.

Turning to `CCOc1c2c(c(OCC)c3ncccc13)CN(c1ccc(CS(=O)(=O)NC(=O)Cc3ccccn3)cc1C)C2=O`, the Ki was found to be 2.4 nM in experiment [1] and 13 nM in experiment [2].

On to `CCOc1c2c(c(OCC)c3ncccc13)CN(c1ccc(CS(=O)(=O)NC(=O)Cc3c(Cl)cccc3Cl)cc1C)C2=O`, for which the Ki in experiment [1] stood at 0.28 nM; in experiment [2], 4.8 nM.

For `COc1ccccc1CC(=O)NS(=O)(=O)Cc1ccc(N2Cc3c(c(OC(C)C)c4cccnc4c3OC(C)C)C2=O)c(C)c1`, the Ki in experiment [1] turned out to be 0.36 nM; in experiment [2], 26 nM.

For the compound `CCOc1c2c(c(OCC)c3ncccc13)CN(c1ccc(CS(=O)(=O)NC(=O)Cc3ccncc3)cc1C)C2=O`, the Ki in experiment [1] is 9.8 nM; in experiment [2], 160 nM.

Turning to `CS(=O)(=O)c1ccc(C2=C(c3ccccc3)C(=O)OC2)cc1` [ROFECOXIB], the ED50 in the experiment listed under Rattus norvegicus turned out to be 0.74 mg/kg.

Regarding `CCOc1c2c(c(OCC)c3ncccc13)CN(c1ccc(CS(=O)(=O)NC(=O)Cc3ccccc3C(F)(F)F)cc1C)C2=O`, the Ki was 0.43 nM in experiment [1] and 350 nM in experiment [2].

`CCOc1c2c(c(OCC)c3ncccc13)CN(c1ccc(CS(=O)(=O)NC(=O)C3(c4c(OC)cccc4OC)CC3)cc1C)C2=O`: the Ki in experiment [1] turned out to be 0.54 nM; in experiment [2], 2.3 nM.

With `CCOc1c2c(c(OCC)c3ncccc13)CN(c1ccc(CS(=O)(=O)NC(=O)Cc3ccccc3Cl)cc1C)C2=O`, the Ki was 0.27 nM in experiment [1] and 37 nM in experiment [2].

On to `CCOc1c2c(c(OCC)c3ccccc13)C(=O)N(c1ccc(CS(=O)(=O)NC(=O)Cc3cccc(OC)c3)cc1)C2`, for which the Ki in experiment [1] was 2.4 nM; in experiment [2] it was 1600 nM.

`CCOc1c2c(c(OCC)c3ccccc13)C(=O)N(c1ccc(CS(=O)(=O)NC(=O)CCc3ccsc3)cc1)C2`: the Ki in experiment [1] was 4.2 nM; in experiment [2], above 4000 nM.

In the case of `COc1ccccc1CC(=O)NS(=O)(=O)Cc1ccc(N2Cc3c(c(OCC(F)(F)F)c4cccnc4c3OCC(F)(F)F)C2=O)c(C)c1`, the figures for the Ki in experiment [1] and in experiment [2] were 0.38 nM and 17 nM, respectively.

Regarding `COc1ccccc1C1(C(=O)NS(=O)(=O)Cc2ccc(N3Cc4c(c(OCC(F)(F)F)c5cccnc5c4OCC(F)(F)F)C3=O)c(C)c2)CC1`, the Ki in experiment [1] worked out at 0.95 nM; in experiment [2] it was 12 nM.

In the case of `CCOc1c2c(c(OCC)c3ccccc13)C(=O)N(c1ccc(CS(=O)(=O)NC(=O)Cn3nccc3C)cc1)C2`, the Ki in experiment [1] turned out to be 2 nM; in experiment [2], 600 nM.

Take `CCOc1c2c(c(OCC)c3ncccc13)CN(c1ccc(CS(=O)(=O)NC(=O)C3(c4ccccc4OC)CC3)cc1C)C2=O`: the Ki was 0.55 nM in experiment [1] and 4.2 nM in experiment [2].

As for `CCOc1c2c(c(OCC)c3ncccc13)CN(c1ccc(CS(=O)(=O)NC(=O)Cc3ccccc3OC(F)(F)F)cc1C)C2=O`, the values for the Ki in experiment [1] and in experiment [2] were 0.21 nM and 56 nM, respectively.

As for `CCOc1c2c(c(OCC)c3ncccc13)CN(c1ccc(CS(=O)(=O)NC(=O)Cc3cccnc3)cc1C)C2=O`, the Ki worked out at 2.8 nM in experiment [1] and 48 nM in experiment [2].

`CCOc1c2c(c(OCC)c3ccccc13)C(=O)N(c1ccc(CS(=O)(=O)NC(=O)C3CCCc4ccccc43)cc1)C2` (configuration not stated): the Ki in experiment [1] worked out at 1 nM; in experiment [2], 940 nM.

Regarding `CCOc1c2c(c(OCC)c3ncccc13)C(=O)N(c1ccc(CS(=O)(=O)NC(=O)Cc3ccccc3)cc1C)C2`, the Ki was determined as 3.3 nM in experiment [1] and 660 nM in experiment [2].

Regarding `CCOc1c2c(c(OCC)c3ccccc13)C(=O)N(c1ccc(CS(=O)(=O)NC(=O)Cc3ccccc3)cc1)C2`, the Ki was 0.31 nM in experiment [1] and above 4000 nM in experiment [2].

As for `CCOc1c2c(c(OCC)c3ccccc13)C(=O)N(c1ccc(CS(=O)(=O)NC(=O)Cc3cc(OC)ccc3OC)cc1)C2`, the Ki in experiment [1] is 0.37 nM; in experiment [2] it was 38 nM.

For `CCOc1ccccc1CC(=O)NS(=O)(=O)Cc1ccc(N2Cc3c(c(OCC)c4cccnc4c3OCC)C2=O)c(C)c1`, the Ki in experiment [1] came to 0.27 nM; in experiment [2], 8.9 nM.

Take `CCOc1c2c(c(OCC)c3ccccc13)C(=O)N(c1ccc(CS(=O)(=O)NC(=O)Cc3cccc4ccccc34)cc1)C2`: the figures for the Ki in experiment [1] and in experiment [2] were 0.43 nM and 4.8 nM, respectively.

Turning to `CCOc1c2c(c(OCC)c3ccccc13)C(=O)N(c1ccc(CS(=O)(=O)NC(=O)Cc3ccccc3)cc1C)C2`, the Ki turned out to be 0.25 nM in experiment [1] and 29 nM in experiment [2].

Turning to `CCOc1c2c(c(OCC)c3ccccc13)C(=O)N(c1ccc(CS(=O)(=O)NC(=O)COc3ccccc3)cc1)C2`, the results for the Ki in experiment [1] and in experiment [2] were 0.38 nM and 1200 nM, respectively.
